Data reported in ChEMBL document CHEMBL1145673, “Assay method for antihepatotoxic activity using galactosamine-induced cytotoxicity in primary-cultured hepatocytes” (J Nat Prod, 1983).
The source made the active and inactive calls. The calls are words filed in the database; no cut-off is given here.

How the values were obtained:
[1] = test system: Hepatocyte; experiment: Antihepatotoxic activity against 1.5 hrs galactosamine pretreatment-induced cytotoxicity in Wistar rat hepatocytes assessed as glutamic-pyruvic transaminase activity at 0.01 mg/ml after 30 hrs relative to control; assay type: functional
[2] = test system: Hepatocyte; experiment: Cytotoxicity in Wistar rat hepatocytes assessed as glutamic-pyruvic transaminase activity at 0.01 mg/ml after 30 hrs; assay type: cell-based
[3] = test system: Hepatocyte; experiment: Cytotoxicity in Wistar rat hepatocytes assessed as glutamic-pyruvic transaminase activity at 1 mg/ml after 30 hrs; assay type: cell-based
[4] = test system: Hepatocyte; experiment: Antihepatotoxic activity against 1.5 hrs galactosamine pretreatment-induced cytotoxicity in Wistar rat hepatocytes assessed as glutamic-pyruvic transaminase activity at 0.1 mg/ml after 30 hrs relative to control; assay type: functional
[5] = test system: Hepatocyte; experiment: Antihepatotoxic activity against 1.5 hrs galactosamine pretreatment-induced cytotoxicity in Wistar rat hepatocytes assessed as glutamic-pyruvic transaminase activity at 1 mg/ml after 30 hrs relative to control; assay type: functional
[6] = test system: Hepatocyte; experiment: Cytotoxicity in Wistar rat hepatocytes assessed as glutamic-pyruvic transaminase activity at 0.1 mg/ml after 30 hrs; assay type: cell-based
[7] = test system: Hepatocyte; experiment: Effect on 1.5 hrs galactosamine pretreatment-induced cytotoxicity in Wistar rat hepatocytes at 1 uM; assay type: functional, cell-based
[8] = test system: Hepatocyte; experiment: Effect on 1.5 hrs galactosamine pretreatment-induced cytotoxicity in Wistar rat hepatocytes assessed as glutamic-pyruvic transaminase activity at 1 uM; assay type: functional

SMILES	Activity [1] [%]	Activity [2] [IU/L]	Activity [3] [IU/L]	Activity [4] [%]	Activity [5] [%]	Activity [6] [IU/L]	Activity [7]	Activity [8] [IU/L]
O=C(/C=C/c1ccc(O)c(O)c1)O[C@@H]1C[C@@](OC(=O)/C=C/c2ccc(O)c(O)c2)(C(=O)O)C[C@@H](O)[C@@H]1O [CYNARIN]	95	20	51	84	48	27		
COc1cc([C@@H]2c3cc4c(cc3C[C@H]3COC(=O)[C@@H]32)OCO4)cc(OC)c1OC [DESOXYPODOPHYLLOTOXIN]	93	43	137	50	92	35		
C[C@@H]1C[C@H]2[C@@H]3CCC4=CC(=O)C=C[C@]4(C)[C@@]3(F)[C@@H](O)C[C@]2(C)[C@@]1(O)C(=O)CO [DEXAMETHASONE]							inactive	96
CC1(C)[C@@H](O)CC[C@]2(C)[C@H]3C(=O)C=C4[C@@H]5C[C@@](C)(C(=O)O)CC[C@]5(C)CC[C@@]4(C)[C@]3(C)CC[C@@H]12 [ENOXOLONE]		26	42	58	27	16		
CC1(C)[C@@H](O[C@H]2O[C@H](C(=O)O)[C@@H](O)[C@H](O)[C@H]2O[C@@H]2O[C@H](C(=O)O)[C@@H](O)[C@H](O)[C@H]2O)CC[C@]2(C)[C@H]3C(=O)C=C4[C@@H]5C[C@@](C)(C(=O)O)CC[C@]5(C)CC[C@@]4(C)[C@]3(C)CC[C@@H]12 [GLYCYRRHIZIN]	103	24	21	100	24	59		
CSCC[C@H](N)C(=O)O [METHIONINE]	106	24	25	113	122	28		
COc1cc(C(=O)O[C@H]2[C@@H]3C=CO[C@@H](O[C@@H]4O[C@H](CO)[C@@H](O)[C@H](O)[C@H]4O)[C@@H]3[C@@]3(CO)O[C@@H]23)ccc1O [PICROSIDE II]	103	27	40	101	78	28		
O=C(/C=C/c1ccccc1)OC[C@H]1O[C@@H](O[C@@H]2OC=C[C@H]3[C@H](O)[C@@H]4O[C@]4(CO)[C@@H]23)[C@H](O)[C@@H](O)[C@@H]1O [PICROSIDE I]	96	24	131	122	111	50		
COc1cc(C2Oc3cc([C@H]4Oc5cc(O)cc(O)c5C(=O)[C@@H]4O)ccc3OC2CO)ccc1O (some centres undefined) [SILIBININ]	106	29	93	103	66	157		
